According to patent US10995101B2, “2-oxo-thiazole derivatives as A2A inhibitors and compounds for use in the treatment of cancers” (iTeos Therapeutics SA, priority 2017, dated 2021):

Target: A2A receptor (Homo sapiens, UniProt P29274)
Assay: Inhibition of cAMP production in HEK cells
Format: cell-based
Conditions: HEK-293 cells with A2A receptor
Experimental: When the A2A receptor is activated, is induces the production of cAMP.
HEK-293 cells with a stable transfection of A2A receptor were bought from PerkinElmer® (# ES-011-C). […] Fresh media without the selection marker was added on the day immediately before the experiment to stop selection pressure.
Stimulation buffer b) mimics the human situation by increasing the amount of albumin present in the assay.
Compounds of the present invention were diluted 100× in either of the buffers depending on the assay performed. […] The total volume of the reaction was 20 μl (10 μl of cells, 5 μl of antagonist and 5 μl of agonist). The reaction was finalized by adding 10 μl of 4× EU-cAMP tracer working solution and 10 μl of 4× ULight-anti-cAMP working solution. The TR-FRET signal was measured after 1 hour using a Spectramax Paradigm (Molecular Devices).

[1] = IC50 (nM) (3 nM NECA as agonist, 0.1% BSA), 3 nM NECA as agonist, 0.1% BSA
[2] = IC50 (nM) (5 nM NECA as agonist, 2% HSA), 5 nM NECA as agonist, 2% HSA
[3] = IC50 (nM) (5 μM Adenosine as agonist, 2.0% HSA), 5 μM Adenosine as agonist, 2.0% HSA

Sequence of A2A receptor (P29274 whole entry): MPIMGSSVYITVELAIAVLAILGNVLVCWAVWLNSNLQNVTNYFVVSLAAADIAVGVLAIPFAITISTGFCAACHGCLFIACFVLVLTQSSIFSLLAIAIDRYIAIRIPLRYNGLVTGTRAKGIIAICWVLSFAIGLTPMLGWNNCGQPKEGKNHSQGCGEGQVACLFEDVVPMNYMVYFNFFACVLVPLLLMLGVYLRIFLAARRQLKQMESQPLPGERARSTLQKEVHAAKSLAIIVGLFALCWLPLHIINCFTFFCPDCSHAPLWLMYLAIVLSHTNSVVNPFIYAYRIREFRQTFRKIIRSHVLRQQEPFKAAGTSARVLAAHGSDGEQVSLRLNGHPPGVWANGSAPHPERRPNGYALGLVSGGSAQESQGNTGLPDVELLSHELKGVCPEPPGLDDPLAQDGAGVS

SMILES	IC50 [1]	IC50 [2]	IC50 [3]
NC(=O)COc1ccc(N2CCN(CCn3c(=O)sc4c3nc(N)n3nc(-c5ccco5)nc43)CC2)cc1 [Compound 11, 2-(4-(4-(2-(5-amino-8-(furan-2-yl)-2-oxothiazolo[5,4-e][1,2,4]triazolo[1,5-c]pyrimidin-3(2H)-yl)ethyl)piperazin-1-yl)phenoxy)acetamide]	2 nM		
Nc1nc2c(sc(=O)n2CCN2CCN(c3ccc(OCC(O)CO)cc3)CC2)c2nc(-c3ccco3)nn12 (stereo not drawn) [Compound 12, 5-amino-3-(2-(4-(4-(2,3-dihydroxypropoxy)phenyl)piperazin-1-yl)ethyl)-8-(furan-2-yl)thiazolo[5,4-e][1,2,4]triazolo[1,5-c]pyrimidin-2(3H)-one]	14.2 nM		
NCCOc1ccc(N2CCN(CCn3c(=O)sc4c3nc(N)n3nc(-c5ccco5)nc43)CC2)cc1 [Compound 13, 5-amino-3-(2-(4-(4-(2-aminoethoxy)phenyl)piperazin-1-yl)ethyl)-8-(furan-2-yl)thiazolo[5,4-e][1,2,4]triazolo[1,5-c]pyrimidin-2(3H)-one]	0.6 nM	2 nM	63 nM
NC(=O)c1ccc(N2CCN(CCn3c(=O)sc4c3nc(N)n3nc(-c5ccco5)nc43)CC2)cc1 [Compound 14, 4-(4-(2-(5-amino-8-(furan-2-yl)-2-oxothiazolo[5,4-e][1,2,4]triazolo[1,5-c]pyrimidin-3(2H)-yl)ethyl)piperazin-1-yl)benzamide]	0.7 nM	11 nM	567 nM
CNC(=O)c1ccc(N2CCN(CCn3c(=O)sc4c3nc(N)n3nc(-c5ccco5)nc43)CC2)cc1 [Compound 15, 4-(4-(2-(5-amino-8-(furan-2-yl)-2-oxothiazolo[5,4-e][1,2,4]triazolo[1,5-c]pyrimidin-3(2H)-yl)ethyl)piperazin-1-yl)-N-methylbenzamide]	2.6 nM		
Nc1nc2c(sc(=O)n2CCN2CCN(c3ccc(OCCN4CCOCC4)cc3)CC2)c2nc(-c3ccco3)nn12 [Compound 16, 5-amino-8-(furan-2-yl)-3-(2-(4-(4-(2-morpholinoethoxy)phenyl)piperazin-1-yl)ethyl)thiazolo[5,4-e][1,2,4]triazolo[1,5-c]pyrimidin-2(3H)-one]	3.2 nM	14 nM	
CN(C)CCOc1ccc(N2CCN(CCn3c(=O)sc4c3nc(N)n3nc(-c5ccco5)nc43)CC2)cc1 [Compound 17, 5-amino-3-(2-(4-(4-(2-(dimethylamino)ethoxy)phenyl)piperazin-1-yl)ethyl)-8-(furan-2-yl)thiazolo[5,4-e][1,2,4]triazolo[1,5-c]pyrimidin-2(3H)-one]	1 nM		
Nc1nc2c(sc(=O)n2CCN2CCN(c3ccc(S(N)(=O)=O)cc3)CC2)c2nc(-c3ccco3)nn12 [Compound 18, 4-(4-(2-(5-amino-8-(furan-2-yl)-2-oxothiazolo[5,4-e][1,2,4]triazolo[1,5-c]pyrimidin-3(2H)-yl)ethyl)piperazin-1-yl)benzenesulfonamide]	1.7 nM	85 nM	2170 nM
CNS(=O)(=O)c1ccc(N2CCN(CCn3c(=O)sc4c3nc(N)n3nc(-c5ccco5)nc43)CC2)cc1 [Compound 19, 4-(4-(2-(5-amino-8-(furan-2-yl)-2-oxothiazolo[5,4-e][1,2,4]triazolo[1,5-c]pyrimidin-3(2H)-yl)ethyl)piperazin-1-yl)-N-methylbenzenesulfonamide]	2.6 nM		
CS(=O)(=O)c1ccc(N2CCN(CCn3c(=O)sc4c3nc(N)n3nc(-c5ccco5)nc43)CC2)cc1 [Compound 20, 5-amino-8-(furan-2-yl)-3-(2-(4-(4-(methylsulfonyl)phenyl)piperazin-1-yl)ethyl)thiazolo[5,4-e][1,2,4]triazolo[1,5-c]pyrimidin-2(3H)-one]	1.9 nM	352 nM	
C[S+]([O-])c1ccc(N2CCN(CCn3c(=O)sc4c3nc(N)n3nc(-c5ccco5)nc43)CC2)cc1 (stereo not drawn) [Compound 21, 5-amino-8-(furan-2-yl)-3-(2-(4-(4-(methylsulfinyl)phenyl)piperazin-1-yl)ethyl)thiazolo[5,4-e][1,2,4]triazolo[1,5-c]pyrimidin-2(3H)-one]	1.6 nM	52 nM	1310 nM

More lines, now with the values ahead:

IC50 [1]	IC50 [2]	IC50 [3]	SMILES
0.3 nM	9 nM	552 nM	C[C@H](Oc1ccc(N2CCN(CCn3c(=O)sc4c3nc(N)n3nc(-c5ccco5)nc43)CC2)c(F)c1)C(=O)O (single isomer, unassigned) [Compound 38]
	4 nM	127 nM	C[C@@H](Oc1ccc(N2CCN(CCn3c(=O)sc4c3nc(N)n3nc(-c5ccco5)nc43)CC2)c(F)c1)C(=O)O (single isomer, unassigned) [Compound 53]
0.8 nM	4 nM	240 nM	C[C@H](Oc1cc(N2CCN(CCn3c(=O)sc4c3nc(N)n3nc(-c5ccco5)nc43)CC2)c(F)cc1F)C(=O)O (single isomer, unassigned) [Compound 60]
0.9 nM	15 nM	810 nM	C[C@@H](Oc1cc(N2CCN(CCn3c(=O)sc4c3nc(N)n3nc(-c5ccco5)nc43)CC2)c(F)cc1F)C(=O)O (single isomer, unassigned) [Compound 61]
1.4 nM	6 nM	352 nM	NC(=O)c1cccc(N2CCN(CCn3c(=O)sc4c3nc(N)n3nc(-c5ccco5)nc43)CC2)c1 [Compound 22, 3-(4-(2-(5-amino-8-(furan-2-yl)-2-oxothiazolo[5,4-e][1,2,4]triazolo[1,5-c]pyrimidin-3(2H)-yl)ethyl)piperazin-1-yl)benzamide]
0.6 nM			Nc1nc2c(sc(=O)n2CCN2CCN(c3cccc(OCCO)c3)CC2)c2nc(-c3ccco3)nn12 [Compound 23, 5-amino-8-(furan-2-yl)-3-(2-(4-(3-(2-hydroxyethoxy)phenyl)piperazin-1-yl)ethyl)thiazolo[5,4-e][1,2,4]triazolo[1,5-c]pyrimidin-2(3H)-one]
0.2 nM	4 nM	115 nM	Nc1nc2c(sc(=O)n2CCN2CCN(c3ccc(S(=O)(=O)N4CCNCC4)cc3F)CC2)c2nc(-c3ccco3)nn12 [Compound 28, 5-amino-3-(2-(4-(2-fluoro-4-(piperazin-1-ylsulfonyl)phenyl)piperazin-1-yl)ethyl)-8-(furan-2-yl)thiazolo[5,4-e][1,2,4]triazolo[1,5-c]pyrimidin-2(3H)-one]
0.4 nM	11 nM	350 nM	CS(=O)(=O)c1ccc(N2CCN(CCn3c(=O)sc4c3nc(N)n3nc(-c5ccco5)nc43)CC2)c(F)c1 [Compound 29, 5-amino-3-(2-(4-(2-fluoro-4-(methylsulfonyl)phenyl)piperazin-1-yl)ethyl)-8-(furan-2-yl)thiazolo[5,4-e][1,2,4]triazolo[1,5-c]pyrimidin-2(3H)-one]
0.7 nM	8 nM	260 nM	Nc1nc2c(sc(=O)n2CCN2CCN(c3c(F)cc(OCC(=O)O)cc3F)CC2)c2nc(-c3ccco3)nn12 [Compound 36, 2-(4-(4-(2-(5-amino-8-(furan-2-yl)-2-oxothiazolo[5,4-e][1,2,4]triazolo[1,5-c]pyrimidin-3(2H)-yl)ethyl)piperazin-1-yl)-3,5-difluorophenoxy)acetic acid]
0.8 nM	9 nM	398 nM	CC(Oc1ccc(N2CCN(CCn3c(=O)sc4c3nc(N)n3nc(-c5ccco5)nc43)CC2)c(F)c1)C(=O)O (stereo not drawn) [Compound 37, 2-(4-(4-(2-(5-amino-8-(furan-2-yl)-2-oxothiazolo[5,4-e][1,2,4]triazolo[1,5-c]pyrimidin-3(2H)-yl)ethyl)piperazin-1-yl)-3-fluorophenoxy)propanoic acid]
0.8 nM	14 nM	423 nM	Nc1nc2c(sc(=O)n2CCN2CCN(c3ccc(OCCCC(=O)O)cc3F)CC2)c2nc(-c3ccco3)nn12 [Compound 41, 4-(4-(4-(2-(5-amino-8-(furan-2-yl)-2-oxothiazolo[5,4-e][1,2,4]triazolo[1,5-c]pyrimidin-3(2H)-yl)ethyl)piperazin-1-yl)-3-fluorophenoxy)butanoic acid]
0.4 nM	19 nM	332 nM	Nc1nc2c(sc(=O)n2CCN2CCN(c3ccc(F)c(OCC(=O)O)c3F)CC2)c2nc(-c3ccco3)nn12 [Compound 42, 2-(3-(4-(2-(5-amino-8-(furan-2-yl)-2-oxothiazolo[5,4-e][1,2,4]triazolo[1,5-c]pyrimidin-3(2H)-yl)ethyl)piperazin-1-yl)-2,6-difluorophenoxy)acetic acid]
0.3 nM	1 nM	41 nM	CNCCN(C)C(=O)COc1ccc(N2CCN(CCn3c(=O)sc4c3nc(N)n3nc(-c5ccco5)nc43)CC2)c(F)c1 [Compound 58, 2-(4-(4-(2-(5-amino-8-(furan-2-yl)-2-oxothiazolo[5,4-e][1,2,4]triazolo[1,5-c]pyrimidin-3(2H)-yl)ethyl)piperazin-1-yl)-3-fluorophenoxy)-N-methyl-N-(2-(methylamino)ethyl)acetamide]
0.9 nM	21 nM	1070 nM	CC(C)(Oc1cc(N2CCN(CCn3c(=O)sc4c3nc(N)n3nc(-c5ccco5)nc43)CC2)c(F)cc1F)C(=O)O [Compound 59, 2-(5-(4-(2-(5-amino-8-(furan-2-yl)-2-oxothiazolo[5,4-e][1,2,4]triazolo[1,5-c]pyrimidin-3(2H)-yl)ethyl)piperazin-1-yl)-2,4-difluorophenoxy)-2-methylpropanoic acid]
